Source: the NIST ThermoML archive (doi:10.1016/j.jct.2015.01.001)
Numbers after ± are expanded uncertainties.

Test: mn = molality of the nth substance listed, in mol/kg
Settings: Liquid; for viscosity: Falling or rolling sphere viscometry; for mass density: Vibrating tube method

S [hydrogen sulfide] + O=S1(=O)CCCC1
Settings	mass density [kg/m3]	viscosity [mPa·s]
303.15 K, 86.7 kPa, m1 = 0.389	1257 ± 1	9.33 ± 0.24
303.15 K, 137.1 kPa, m1 = 0.623	1255 ± 1	8.58 ± 0.23
303.15 K, 193.6 kPa, m1 = 0.915	1253 ± 1	7.76 ± 0.21
303.15 K, 230.1 kPa, m1 = 1.128	1251 ± 1	6.88 ± 0.2
303.15 K, 304.1 kPa, m1 = 1.435	1248 ± 1	6.31 ± 0.19
303.15 K, 364.8 kPa, m1 = 1.764	1246 ± 1	5.55 ± 0.17
303.15 K, 401.1 kPa, m1 = 2.032	1244 ± 1	5.09 ± 0.16
303.15 K, 503.2 kPa, m1 = 2.605	1242 ± 1	4.44 ± 0.13
303.15 K, 616.7 kPa, m1 = 3.291	1238 ± 1	3.7 ± 0.1
303.15 K, 738.4 kPa, m1 = 4.17	1237 ± 1	2.95 ± 0.07
303.15 K, 889.7 kPa, m1 = 5.327	1233 ± 1	2.08 ± 0.05
303.15 K, 1040.5 kPa, m1 = 6.929	1230 ± 2	1.47 ± 0.03
313.15 K, 160.8 kPa, m1 = 0.626	1246 ± 1	6.7 ± 0.17
313.15 K, 227 kPa, m1 = 0.884	1242 ± 1	6.03 ± 0.16
313.15 K, 273.9 kPa, m1 = 1.021	1242 ± 1	5.5 ± 0.15
313.15 K, 362.7 kPa, m1 = 1.408	1238 ± 1	5.07 ± 0.13
313.15 K, 419.7 kPa, m1 = 1.723	1236 ± 1	4.54 ± 0.12
313.15 K, 481.3 kPa, m1 = 2.009	1234 ± 1	4.02 ± 0.11
313.15 K, 586.5 kPa, m1 = 2.375	1231 ± 1	3.74 ± 0.09
313.15 K, 718.4 kPa, m1 = 3.078	1228 ± 1	3.07 ± 0.07
313.15 K, 859.9 kPa, m1 = 3.931	1225 ± 1	2.44 ± 0.05
313.15 K, 1035.5 kPa, m1 = 5.164	1223 ± 1	1.8 ± 0.03
323.15 K, 76.1 kPa, m1 = 0.222	1243 ± 1	6.09 ± 0.15
323.15 K, 118.7 kPa, m1 = 0.378	1242 ± 1	5.55 ± 0.15
323.15 K, 190.1 kPa, m1 = 0.579	1239 ± 1	5.16 ± 0.14
323.15 K, 267.2 kPa, m1 = 0.823	1236 ± 1	4.49 ± 0.13
323.15 K, 317.2 kPa, m1 = 1.009	1234 ± 1	4.35 ± 0.12
323.15 K, 430.1 kPa, m1 = 1.389	1229 ± 1	3.74 ± 0.1
323.15 K, 490.4 kPa, m1 = 1.704	1226 ± 1	3.41 ± 0.09
323.15 K, 565.2 kPa, m1 = 1.985	1223 ± 1	3.09 ± 0.07
323.15 K, 688.7 kPa, m1 = 2.348	1220 ± 1	2.86 ± 0.06
323.15 K, 843.7 kPa, m1 = 3.097	1216 ± 1	2.35 ± 0.04
323.15 K, 1009.9 kPa, m1 = 3.97	1215 ± 1	1.89 ± 0.03
333.15 K, 88.3 kPa, m1 = 0.218	1233 ± 1	4.78 ± 0.13
333.15 K, 139.2 kPa, m1 = 0.372	1231 ± 1	4.65 ± 0.12
333.15 K, 219.9 kPa, m1 = 0.571	1228 ± 1	4.29 ± 0.11
333.15 K, 314.1 kPa, m1 = 0.811	1225 ± 1	3.86 ± 0.11
333.15 K, 370.5 kPa, m1 = 0.995	1223 ± 1	3.58 ± 0.1
333.15 K, 505.9 kPa, m1 = 1.368	1219 ± 1	3.17 ± 0.08
333.15 K, 576.7 kPa, m1 = 1.681	1215 ± 1	2.8 ± 0.07
333.15 K, 664 kPa, m1 = 1.959	1212 ± 1	2.55 ± 0.06
333.15 K, 800 kPa, m1 = 2.462	1208 ± 1	2.29 ± 0.05
343.15 K, 96 kPa, m1 = 0.205	1223 ± 1	3.95 ± 0.11
343.15 K, 159.7 kPa, m1 = 0.347	1220 ± 1	3.74 ± 0.1
343.15 K, 253.3 kPa, m1 = 0.563	1218 ± 1	3.5 ± 0.1
343.15 K, 368.1 kPa, m1 = 0.797	1215 ± 1	3.13 ± 0.08
343.15 K, 428.2 kPa, m1 = 0.981	1214 ± 1	2.99 ± 0.07
343.15 K, 590.6 kPa, m1 = 1.347	1211 ± 1	2.65 ± 0.06
343.15 K, 678.9 kPa, m1 = 1.654	1204 ± 1	2.34 ± 0.06
343.15 K, 782.1 kPa, m1 = 1.927	1202 ± 1	2.18 ± 0.05
343.15 K, 914 kPa, m1 = 2.221	1200 ± 1	2.01 ± 0.04
343.15 K, 1119.8 kPa, m1 = 2.876	1196 ± 1	1.65 ± 0.03
353.15 K, 116.1 kPa, m1 = 0.202	1216 ± 1	3.24 ± 0.08
353.15 K, 179.9 kPa, m1 = 0.319	1214 ± 1	3.11 ± 0.08
353.15 K, 288.8 kPa, m1 = 0.546	1210 ± 1	2.69 ± 0.07
353.15 K, 427.9 kPa, m1 = 0.802	1209 ± 1	2.53 ± 0.07
353.15 K, 494.2 kPa, m1 = 0.965	1206 ± 1	2.46 ± 0.06
353.15 K, 683.1 kPa, m1 = 1.324	1199 ± 1	2.2 ± 0.05
353.15 K, 795.9 kPa, m1 = 1.624	1195 ± 1	1.98 ± 0.05
353.15 K, 911.1 kPa, m1 = 1.894	1193 ± 1	1.81 ± 0.04
363.15 K, 131.7 kPa, m1 = 0.195	1208 ± 1	2.71 ± 0.07
363.15 K, 201.9 kPa, m1 = 0.304	1206 ± 1	2.61 ± 0.06
363.15 K, 327.1 kPa, m1 = 0.504	1202 ± 1	2.46 ± 0.06
363.15 K, 494.7 kPa, m1 = 0.767	1199 ± 1	2.21 ± 0.05
363.15 K, 565.7 kPa, m1 = 0.912	1196 ± 1	2.05 ± 0.05
363.15 K, 784.2 kPa, m1 = 1.3	1190 ± 1	1.74 ± 0.04
363.15 K, 928.7 kPa, m1 = 1.591	1185 ± 1	1.5 ± 0.04
363.15 K, 1052.3 kPa, m1 = 1.86	1184 ± 1	1.37 ± 0.03
